Assay results from ChEMBL document CHEMBL3352759, “Reduction in lipophilicity improved the solubility, plasma-protein binding, and permeability of tertiary sulfonamide RORc inverse agonists” (Bioorg Med Chem Lett, 2014).

Tests used:
[1] = Apparent permeability from apical to basolateral side of MDCK cells at 2 uM by LC-MS/MS analysis; format: ADME, cell-based, Canis lupus familiaris; conditions: dog
[2] = Apparent permeability from basolateral to apical side of MDCK cells at 2 uM by LC-MS/MS analysis; format: ADME, cell-based, Canis lupus familiaris; conditions: dog

Compound	Papp A→B at 2 µM [1]	Papp B→A at 2 µM [2]
CC(C)CN(Cc1ccc(-c2ccc(S(C)(=O)=O)cc2)cc1)S(=O)(=O)Cc1ccccc1	3 ×10⁻⁶ cm/s	2 ×10⁻⁶ cm/s
CC(=O)N1CCN(c2ccc(CN(C3CCC3)S(=O)(=O)Cc3ccccc3)cc2)CC1	24 ×10⁻⁶ cm/s	24 ×10⁻⁶ cm/s
